Reference: ChEMBL document CHEMBL1201862, “PubChem BioAssay data set” (2004)
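Exposure lasted 48 hours, with cells grown in 96-well plates and compounds tested at five concentrations. At the GI50, growth is halved.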 The source made the active and inactive calls. Rule as the data show it: active = GI50 up to about 1.1 µM and inactive = higher.

Assays:
Experiment in all cases: NCI-60 cell line screen, 48 h
OVCAR-3 = test system: OVCAR-3
CAKI-1 = test system: CAKI-1
NCI-H23 = test system: NCI-H23
MCF7 = test system: MCF7
U-251 = test system: U-251
Malme-3M = test system: Malme-3M
NCI/ADR-RES = test system: NCI/ADR-RES
SK-MEL-28 = test system: SK-MEL-28
HCT-116 = test system: HCT-116
OVCAR-5 = test system: OVCAR-5
NCI-H226 = test system: NCI-H226
KM12 = test system: KM12
A498 = test system: A498
HOP-92 = test system: HOP-92
UACC-62 = test system: UACC-62
HOP-18 = test system: HOP-18
M19-MEL = test system: M19-MEL
HCC 2998 = test system: HCC 2998
DMS-114 = test system: DMS-114
DMS-273 = test system: DMS-273

SMILES: COc1ccc2oc(=N)c(C(=O)Nc3ccccc3)cc2c1
- GI50 (OVCAR-3): 30.5 µM (inactive)
- GI50 (CAKI-1): 5.61 µM (inactive)
- GI50 (NCI-H23): 15.2 µM (inactive)
- GI50 (MCF7): 12.8 µM (inactive)
- GI50 (U-251): 19.1 µM (inactive)
- GI50 (Malme-3M): 15.9 µM (inactive)
- GI50 (NCI/ADR-RES): 16.9 µM (inactive)
- GI50 (SK-MEL-28): 30 µM (inactive)
- GI50 (HCT-116): 25.7 µM (inactive)
- GI50 (OVCAR-5): 36.7 µM (inactive)
- GI50 (NCI-H226): 31.1 µM (inactive)
- GI50 (KM12): 24.7 µM (inactive)
- GI50 (A498): 17.1 µM (inactive)

SMILES: COc1cc([C@@H]2c3cc4c(cc3[C@@H](OC3OC5COC(C)OC5C(O)C3O)[C@H]3COC(=O)[C@H]23)OCO4)cc(OC)c1O (some centres undefined)
- GI50 (OVCAR-3): 39.4 µM (inactive)
- GI50 (CAKI-1): 4.2 µM (inactive)
- GI50 (NCI-H23): 6.01 µM (inactive)
- GI50 (HOP-92): 9.2 µM (inactive)
- GI50 (U-251): 3.3 µM (inactive)
- GI50 (Malme-3M): 9.44 µM (inactive)
- GI50 (NCI/ADR-RES): 65.5 µM (inactive)
- GI50 (UACC-62): 6.11 µM (inactive)
- GI50 (HOP-18): 28.3 µM (inactive)
- GI50 (SK-MEL-28): 22.1 µM (inactive)
- GI50 (M19-MEL): 34.7 µM (inactive)
- GI50 (HCC 2998): 9.02 µM (inactive)
- GI50 (HCT-116): 13.6 µM (inactive)
- GI50 (OVCAR-5): 25.2 µM (inactive)
- GI50 (DMS-114): 5.57 µM (inactive)
- GI50 (NCI-H226): 3.44 µM (inactive)
- GI50 (DMS-273): 1.97 µM (inactive)
- GI50 (KM12): 18.6 µM (inactive)
- GI50 (A498): 7.14 µM (inactive)

SMILES: COC(=O)C(Cc1cc(OC)c(OC)c(OC)c1)(NC(=O)c1ccccc1)P(=O)(OC)OC (centres undefined)
- GI50 (CAKI-1): > 100 µM (inactive)
- GI50 (NCI-H23): > 100 µM (inactive)
- GI50 (HOP-92): > 100 µM (inactive)
- GI50 (U-251): > 100 µM (inactive)
- GI50 (UACC-62): > 100 µM (inactive)
- GI50 (SK-MEL-28): > 100 µM (inactive)
- GI50 (M19-MEL): > 100 µM (inactive)
- GI50 (HCC 2998): > 100 µM (inactive)
- GI50 (HCT-116): > 100 µM (inactive)
- GI50 (OVCAR-5): > 100 µM (inactive)
- GI50 (DMS-114): > 100 µM (inactive)
- GI50 (NCI-H226): > 100 µM (inactive)
- GI50 (DMS-273): > 100 µM (inactive)
- GI50 (KM12): > 100 µM (inactive)
- GI50 (A498): > 100 µM (inactive)

SMILES: CCC(C)C1NC(=O)CNC(=O)C2Cc3c([nH]c4cc(O)ccc34)[S+]([O-])CC(NC(=O)CNC1=O)C(=O)NC(CC(=O)O)C(=O)N1CC(O)CC1C(=O)NC(C(C)C(O)CO)C(=O)N2 (centres undefined)
- GI50 (OVCAR-3): 2.47 µM (inactive)
- GI50 (NCI-H23): 1.83 µM (inactive)
- GI50 (HOP-92): 1.68 µM (inactive)
- GI50 (MCF7): 5.12 µM (inactive)
- GI50 (U-251): 3.83 µM (inactive)
- GI50 (Malme-3M): 1.19 µM (inactive)
- GI50 (NCI/ADR-RES): 3.97 µM (inactive)
- GI50 (UACC-62): 2.35 µM (inactive)
- GI50 (HOP-18): 25.8 µM (inactive)
- GI50 (SK-MEL-28): 2.54 µM (inactive)
- GI50 (M19-MEL): 3.24 µM (inactive)
- GI50 (HCC 2998): 0.653 µM (active)
- GI50 (HCT-116): 6.37 µM (inactive)
- GI50 (OVCAR-5): 16.1 µM (inactive)
- GI50 (DMS-114): 0.759 µM (active)
- GI50 (NCI-H226): 1.6 µM (inactive)
- GI50 (DMS-273): 2.23 µM (inactive)
- GI50 (KM12): 6.46 µM (inactive)
- GI50 (A498): 2.83 µM (inactive)

SMILES: COc1ccc(CC(N)=O)cc1OC
- GI50 (OVCAR-3): > 1250 µM (inactive)
- GI50 (CAKI-1): 564 µM (inactive)
- GI50 (NCI-H23): > 1250 µM (inactive)
- GI50 (HOP-92): 753 µM (inactive)
- GI50 (MCF7): > 1250 µM (inactive)
- GI50 (U-251): > 1250 µM (inactive)
- GI50 (Malme-3M): > 1250 µM (inactive)
- GI50 (NCI/ADR-RES): > 1250 µM (inactive)
- GI50 (UACC-62): > 1250 µM (inactive)
- GI50 (HOP-18): 881 µM (inactive)
- GI50 (SK-MEL-28): > 1250 µM (inactive)
- GI50 (M19-MEL): > 1250 µM (inactive)
- GI50 (HCC 2998): > 1250 µM (inactive)
- GI50 (HCT-116): > 1250 µM (inactive)
- GI50 (OVCAR-5): > 853 µM (inactive)
- GI50 (DMS-114): > 1250 µM (inactive)
- GI50 (NCI-H226): > 1250 µM (inactive)
- GI50 (DMS-273): > 1250 µM (inactive)
- GI50 (KM12): > 1250 µM (inactive)
- GI50 (A498): > 1250 µM (inactive)

SMILES: CN(CCO)/N=N/c1n[nH]cc1C(N)=O
- GI50 (OVCAR-3): > 100 µM (inactive)
- GI50 (CAKI-1): > 100 µM (inactive)
- GI50 (NCI-H23): > 100 µM (inactive)
- GI50 (HOP-92): > 100 µM (inactive)
- GI50 (MCF7): > 100 µM (inactive)
- GI50 (U-251): > 100 µM (inactive)
- GI50 (Malme-3M): > 100 µM (inactive)
- GI50 (NCI/ADR-RES): > 100 µM (inactive)
- GI50 (UACC-62): > 100 µM (inactive)
- GI50 (HOP-18): > 100 µM (inactive)
- GI50 (SK-MEL-28): > 100 µM (inactive)
- GI50 (M19-MEL): > 100 µM (inactive)
- GI50 (HCC 2998): > 100 µM (inactive)
- GI50 (HCT-116): > 100 µM (inactive)
- GI50 (OVCAR-5): > 100 µM (inactive)
- GI50 (DMS-114): > 100 µM (inactive)
- GI50 (NCI-H226): > 100 µM (inactive)
- GI50 (DMS-273): > 100 µM (inactive)
- GI50 (KM12): > 100 µM (inactive)
- GI50 (A498): > 100 µM (inactive)

SMILES: CC(=O)NC1C(O)CC(OCCCSCCN)(C(=O)O)OC1C(O)C(O)CO (centres undefined)
- GI50 (CAKI-1): > 100 µM (inactive)
- GI50 (NCI-H23): > 100 µM (inactive)
- GI50 (HOP-92): > 100 µM (inactive)
- GI50 (U-251): > 100 µM (inactive)
- GI50 (Malme-3M): > 100 µM (inactive)
- GI50 (HOP-18): > 100 µM (inactive)
- GI50 (SK-MEL-28): > 100 µM (inactive)
- GI50 (HCC 2998): > 100 µM (inactive)
- GI50 (HCT-116): > 100 µM (inactive)
- GI50 (OVCAR-5): > 100 µM (inactive)
- GI50 (DMS-114): > 100 µM (inactive)
- GI50 (NCI-H226): > 100 µM (inactive)
- GI50 (DMS-273): > 100 µM (inactive)
- GI50 (KM12): > 100 µM (inactive)
- GI50 (A498): > 100 µM (inactive)

SMILES: O=[N+]([O-])c1cccc2c1[nH]c1c(-c3ccccc3)nccc12
- GI50 (OVCAR-3): 1.36 µM (inactive)
- GI50 (NCI-H23): 2.07 µM (inactive)
- GI50 (HOP-92): 0.622 µM (active)
- GI50 (MCF7): 2.33 µM (inactive)
- GI50 (U-251): 2.51 µM (inactive)
- GI50 (Malme-3M): 2.24 µM (inactive)
- GI50 (NCI/ADR-RES): 1.63 µM (inactive)
- GI50 (UACC-62): 1.74 µM (inactive)
- GI50 (HOP-18): 0.274 µM (active)
- GI50 (SK-MEL-28): 3.84 µM (inactive)
- GI50 (M19-MEL): 2.07 µM (inactive)
- GI50 (HCC 2998): 3.31 µM (inactive)
- GI50 (HCT-116): 2.39 µM (inactive)
- GI50 (OVCAR-5): 3.9 µM (inactive)
- GI50 (DMS-114): 1.27 µM (inactive)
- GI50 (NCI-H226): 1.58 µM (inactive)
- GI50 (DMS-273): 2.43 µM (inactive)
- GI50 (KM12): 3.03 µM (inactive)
- GI50 (A498): 3.72 µM (inactive)

SMILES: OCC#CCNCl
- GI50 (OVCAR-3): > 100 µM (inactive)
- GI50 (NCI-H23): > 100 µM (inactive)
- GI50 (HOP-92): > 100 µM (inactive)
- GI50 (MCF7): > 100 µM (inactive)
- GI50 (U-251): > 100 µM (inactive)
- GI50 (Malme-3M): > 100 µM (inactive)
- GI50 (NCI/ADR-RES): > 100 µM (inactive)
- GI50 (UACC-62): > 100 µM (inactive)
- GI50 (HOP-18): > 100 µM (inactive)
- GI50 (SK-MEL-28): > 100 µM (inactive)
- GI50 (M19-MEL): > 100 µM (inactive)
- GI50 (HCC 2998): > 100 µM (inactive)
- GI50 (HCT-116): > 100 µM (inactive)
- GI50 (OVCAR-5): > 100 µM (inactive)
- GI50 (DMS-114): > 100 µM (inactive)
- GI50 (NCI-H226): > 100 µM (inactive)
- GI50 (DMS-273): > 100 µM (inactive)
- GI50 (KM12): > 100 µM (inactive)
- GI50 (A498): > 100 µM (inactive)
